In patent US20260216195A1, “MUTANT-SELECTIVE EGFR INHIBITORS” (Dana-Farber Cancer Institute, Inc., priority 2023, published 2026):

Tests used:
[1] = molecular target: EGFR mutant L858R/T790M Ba/F3 cells (Homo sapiens, UniProt P00533, T790M/L858R, cells depend on it); experiment: Ba/F3 cell proliferation (Cell Titer Glo), EGFR L858R/T790M; assay type: cell-based, murine; conditions: 72 hours, read-out: BaF3 cell L858R/T790M
Description: (§1) The EGFR mutant L858R and L858R/T790M Ba/F3 cells have been previously described (Zhou, W., et al. Nature 462, 2009, 1070-1074). All cell lines were maintained in RPMI 1640 (Cellgro; Mediatech Inc., Herndon, CA) supplemented with 10% FBS, 100 units/mL penicillin, 100 units/mL streptomycin. The EGFR 1941R mutation was introduced via site directed mutagenesis using the Quick Change Site-Directed Mutagenesis kit (Stratagene; La Jolla, CA) according to the manufacturer's instructions. All constructs were confirmed by DNA sequencing. The constructs were shuttled into the retroviral vector JP1540 using the Cre-recombination system (Agilent Technologies, Santa Clara, CA). Ba/F3 cells were then infected with retrovirus per standard protocols, as described previously (Zhou, et al, Nature 2009). Stable clones were obtained by selection in puromycin (2 μg/ml).
(§2) Growth and inhibition of growth was assessed by the Cell Titer Glo assay (Promega, Madison, WI) and was performed according to the manufacturer's instructions. The Cell Titer Glo assay is a luminescence-based method used to determine the number of viable cells based on quantitation of the ATP present, which is directly proportional to the amount of metabolically active cells present. Ba/F3 cells of different EGFR genotypes were exposed to the compounds disclosed herein for 72 hours and the number of cells used per experiment was determined empirically as has been previously established (Zhou, et al., Nature 2009). All experimental points were set up in triplicates in 384-well plates and all experiments were repeated at least three times. […] The curves were fitted using a non-linear regression model with a sigmoidal dose response.

[2] = molecular target: EGFR L858R/T790M (Homo sapiens, UniProt P00533, L858R/T790M); experiment: HTRF-based EGFR biochemical assay, L858R/T790M enzyme; conditions: L858R/T790M 0.02 nM enzyme, 100 μM ATP, 30 min preincubation, read-out: LRTM enzyme IC50
EGFR L858R/T790M, sequence (P00533 25-1210 T790M/L858R): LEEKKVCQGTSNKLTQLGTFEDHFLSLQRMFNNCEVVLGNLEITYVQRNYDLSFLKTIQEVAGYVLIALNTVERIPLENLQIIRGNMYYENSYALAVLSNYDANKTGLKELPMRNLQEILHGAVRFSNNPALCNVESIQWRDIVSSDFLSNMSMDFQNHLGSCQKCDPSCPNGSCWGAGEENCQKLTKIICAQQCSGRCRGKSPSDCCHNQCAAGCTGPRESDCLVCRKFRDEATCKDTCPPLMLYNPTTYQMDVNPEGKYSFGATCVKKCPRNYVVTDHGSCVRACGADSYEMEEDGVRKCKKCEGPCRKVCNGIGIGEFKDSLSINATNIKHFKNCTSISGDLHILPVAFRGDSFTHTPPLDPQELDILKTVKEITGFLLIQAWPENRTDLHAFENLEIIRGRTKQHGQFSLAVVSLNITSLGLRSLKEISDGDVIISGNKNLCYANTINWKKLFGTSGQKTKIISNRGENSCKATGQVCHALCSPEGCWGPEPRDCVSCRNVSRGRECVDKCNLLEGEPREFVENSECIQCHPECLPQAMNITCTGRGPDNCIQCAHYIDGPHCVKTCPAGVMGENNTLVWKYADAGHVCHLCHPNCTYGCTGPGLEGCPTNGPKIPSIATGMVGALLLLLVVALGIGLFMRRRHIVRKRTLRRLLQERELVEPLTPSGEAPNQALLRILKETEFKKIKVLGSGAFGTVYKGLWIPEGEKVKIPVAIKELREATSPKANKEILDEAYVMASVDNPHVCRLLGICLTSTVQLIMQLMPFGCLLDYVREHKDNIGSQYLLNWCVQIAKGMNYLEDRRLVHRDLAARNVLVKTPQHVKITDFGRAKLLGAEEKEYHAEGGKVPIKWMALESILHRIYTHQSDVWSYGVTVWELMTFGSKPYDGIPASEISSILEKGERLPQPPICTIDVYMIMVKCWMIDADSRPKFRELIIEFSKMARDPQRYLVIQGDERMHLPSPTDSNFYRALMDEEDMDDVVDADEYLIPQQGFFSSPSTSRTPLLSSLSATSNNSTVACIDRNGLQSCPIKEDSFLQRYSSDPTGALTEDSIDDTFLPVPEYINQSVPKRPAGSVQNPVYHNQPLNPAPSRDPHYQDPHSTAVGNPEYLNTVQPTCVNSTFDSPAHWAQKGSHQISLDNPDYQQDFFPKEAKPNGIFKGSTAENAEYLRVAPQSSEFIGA
Method: (§3) EGFR biochemical activity measurements were carried out using the homogeneous time-resolved fluorescence (HTRF) assay (Cisbio). Inhibitors and DMSO normalizations were first dispensed to empty black low-volume 384-well plates (Corning) with D300 digital liquid dispenser (HP). All reactions were carried out at room temperature and solutions were added to plates with a Multidrop Combi Reagent Dispenser (ThermoFisher). The reaction mixture (10 μL final volume) contained 1 μM tyrosine kinase peptide-biotin substrate and mutant EGFR in a reaction buffer (50 mM HEPES pH 7.0, 5 mM MgCl2,1 mM MnCl2, 0.01% BSA, 2 mM TCEP, 0.1 mM NaVO4). Enzyme concentrations were adjusted to accommodate varying kinase activities (L858R 0.1 nM, L858R/T790M 0.02 nM). Enzyme reaction solution (2× concentrations, 5 μL) was added to 384-well plates containing compounds and incubated for 30 mins. Enzyme reactions were initiated with the addition of 5 μL of ATP to a final concentration of 100 μM and reacted for 20 mins. Reactions were quenched with the addition of 10 μL of phospho-tyrosine antibody-Europium(III) cryptate (1-to-180 volume ratio) and Streptavidin-XL665 (46.7 nM) in EDTA-containing detection buffer, then incubated at room temperature for 1 hour, and read with a PHERAstar plate reader (excitation=337 nm, emission=620 nm and 665 nm). IC50 values were determined by inhibition curves (11-point curves from 1.0 μM to 0.130 nM or 23-point curves from 1.0 μM to […]) in triplicate with non-linear least squares fit in GraphPad Prism 7.0d. The data obtained are shown in Table 2 below where “−” is indicative of an IC50 value of >5 nM “+” is indicative of an IC50 value of <5 nM, “++” is indicative of an IC50 value of <1 nM, and “+++” is indicative of an IC50 value of <0.5 nM.

[3] = molecular target: EGFR L858R (Homo sapiens, UniProt P00533, L858R); experiment: HTRF-based EGFR biochemical assay, L858R enzyme; conditions: L858R 0.1 nM enzyme, 100 μM ATP, 30 min preincubation, read-out: LR enzyme IC50
EGFR L858R, sequence (P00533 25-1210 L858R): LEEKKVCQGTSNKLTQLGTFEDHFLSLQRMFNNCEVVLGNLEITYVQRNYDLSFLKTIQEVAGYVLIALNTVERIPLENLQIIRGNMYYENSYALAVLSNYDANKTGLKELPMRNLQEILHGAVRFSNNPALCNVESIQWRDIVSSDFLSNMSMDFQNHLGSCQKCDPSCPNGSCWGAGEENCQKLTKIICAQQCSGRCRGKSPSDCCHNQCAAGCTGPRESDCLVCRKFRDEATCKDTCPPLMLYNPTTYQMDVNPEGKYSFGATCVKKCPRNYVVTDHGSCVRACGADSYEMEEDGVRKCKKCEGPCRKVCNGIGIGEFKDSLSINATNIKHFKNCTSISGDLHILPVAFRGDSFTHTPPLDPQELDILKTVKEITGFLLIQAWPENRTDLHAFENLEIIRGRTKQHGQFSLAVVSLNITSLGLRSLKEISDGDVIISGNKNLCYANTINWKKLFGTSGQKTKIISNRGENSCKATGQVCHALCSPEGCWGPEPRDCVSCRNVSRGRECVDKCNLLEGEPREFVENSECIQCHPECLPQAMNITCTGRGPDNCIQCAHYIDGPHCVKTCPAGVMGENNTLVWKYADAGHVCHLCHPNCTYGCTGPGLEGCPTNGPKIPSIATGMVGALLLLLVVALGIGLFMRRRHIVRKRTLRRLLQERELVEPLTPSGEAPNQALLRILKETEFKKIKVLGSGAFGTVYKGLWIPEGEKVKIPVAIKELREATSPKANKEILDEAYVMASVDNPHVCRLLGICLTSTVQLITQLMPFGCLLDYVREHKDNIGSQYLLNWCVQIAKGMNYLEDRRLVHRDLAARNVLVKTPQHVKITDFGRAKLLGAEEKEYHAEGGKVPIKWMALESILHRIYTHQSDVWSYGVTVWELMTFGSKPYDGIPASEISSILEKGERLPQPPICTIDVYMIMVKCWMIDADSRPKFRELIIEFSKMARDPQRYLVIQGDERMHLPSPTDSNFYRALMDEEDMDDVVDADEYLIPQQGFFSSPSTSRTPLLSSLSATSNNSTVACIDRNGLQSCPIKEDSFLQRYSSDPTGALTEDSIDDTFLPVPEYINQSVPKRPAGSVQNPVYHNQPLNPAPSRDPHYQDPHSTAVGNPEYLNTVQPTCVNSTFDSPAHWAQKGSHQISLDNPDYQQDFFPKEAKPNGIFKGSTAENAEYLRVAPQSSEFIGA
Method: as §3

[4] = molecular target: EGFR mutant L858R Ba/F3 cells (Homo sapiens, UniProt P00533, L858R, cells depend on it); experiment: Ba/F3 cell proliferation (Cell Titer Glo), EGFR L858R; assay type: cell-based, murine; conditions: 72 hours, read-out: BaF3 cell L858R IC50
EGFR mutant L858R Ba/F3 cells, sequence (P00533 whole entry L858R): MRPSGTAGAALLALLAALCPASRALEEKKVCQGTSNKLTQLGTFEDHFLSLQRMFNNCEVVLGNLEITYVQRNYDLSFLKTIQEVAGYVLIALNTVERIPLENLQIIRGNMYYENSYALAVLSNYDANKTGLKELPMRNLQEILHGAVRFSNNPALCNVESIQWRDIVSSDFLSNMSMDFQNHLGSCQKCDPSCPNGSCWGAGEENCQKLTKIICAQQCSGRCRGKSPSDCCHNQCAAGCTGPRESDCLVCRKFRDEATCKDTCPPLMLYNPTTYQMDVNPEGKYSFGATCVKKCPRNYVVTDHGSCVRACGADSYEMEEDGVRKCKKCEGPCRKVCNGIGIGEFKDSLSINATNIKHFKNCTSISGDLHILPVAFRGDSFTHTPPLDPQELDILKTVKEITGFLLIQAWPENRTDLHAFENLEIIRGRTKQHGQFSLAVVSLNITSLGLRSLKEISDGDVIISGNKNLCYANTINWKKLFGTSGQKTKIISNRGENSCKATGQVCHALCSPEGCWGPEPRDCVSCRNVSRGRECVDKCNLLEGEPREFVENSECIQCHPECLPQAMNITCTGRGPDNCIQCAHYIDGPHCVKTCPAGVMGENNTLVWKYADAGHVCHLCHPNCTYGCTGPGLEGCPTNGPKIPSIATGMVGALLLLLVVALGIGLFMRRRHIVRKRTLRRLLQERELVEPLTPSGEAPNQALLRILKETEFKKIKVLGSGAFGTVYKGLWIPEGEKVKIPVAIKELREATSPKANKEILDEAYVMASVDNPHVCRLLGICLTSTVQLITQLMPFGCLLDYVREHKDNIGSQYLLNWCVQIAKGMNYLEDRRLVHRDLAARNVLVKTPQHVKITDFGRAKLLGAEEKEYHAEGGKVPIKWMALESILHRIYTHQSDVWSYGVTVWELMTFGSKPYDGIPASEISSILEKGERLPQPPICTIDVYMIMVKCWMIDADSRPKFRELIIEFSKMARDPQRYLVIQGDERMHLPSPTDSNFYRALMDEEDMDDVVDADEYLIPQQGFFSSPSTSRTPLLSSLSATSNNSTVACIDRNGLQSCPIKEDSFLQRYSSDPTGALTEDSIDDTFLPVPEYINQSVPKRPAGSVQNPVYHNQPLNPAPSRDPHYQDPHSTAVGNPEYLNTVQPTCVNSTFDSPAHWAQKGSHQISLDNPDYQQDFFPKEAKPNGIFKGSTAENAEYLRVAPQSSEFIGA
Description: as §1, §2

EGFR mutant L858R/T790M Ba/F3 cells, sequence (P00533 whole entry T790M/L858R): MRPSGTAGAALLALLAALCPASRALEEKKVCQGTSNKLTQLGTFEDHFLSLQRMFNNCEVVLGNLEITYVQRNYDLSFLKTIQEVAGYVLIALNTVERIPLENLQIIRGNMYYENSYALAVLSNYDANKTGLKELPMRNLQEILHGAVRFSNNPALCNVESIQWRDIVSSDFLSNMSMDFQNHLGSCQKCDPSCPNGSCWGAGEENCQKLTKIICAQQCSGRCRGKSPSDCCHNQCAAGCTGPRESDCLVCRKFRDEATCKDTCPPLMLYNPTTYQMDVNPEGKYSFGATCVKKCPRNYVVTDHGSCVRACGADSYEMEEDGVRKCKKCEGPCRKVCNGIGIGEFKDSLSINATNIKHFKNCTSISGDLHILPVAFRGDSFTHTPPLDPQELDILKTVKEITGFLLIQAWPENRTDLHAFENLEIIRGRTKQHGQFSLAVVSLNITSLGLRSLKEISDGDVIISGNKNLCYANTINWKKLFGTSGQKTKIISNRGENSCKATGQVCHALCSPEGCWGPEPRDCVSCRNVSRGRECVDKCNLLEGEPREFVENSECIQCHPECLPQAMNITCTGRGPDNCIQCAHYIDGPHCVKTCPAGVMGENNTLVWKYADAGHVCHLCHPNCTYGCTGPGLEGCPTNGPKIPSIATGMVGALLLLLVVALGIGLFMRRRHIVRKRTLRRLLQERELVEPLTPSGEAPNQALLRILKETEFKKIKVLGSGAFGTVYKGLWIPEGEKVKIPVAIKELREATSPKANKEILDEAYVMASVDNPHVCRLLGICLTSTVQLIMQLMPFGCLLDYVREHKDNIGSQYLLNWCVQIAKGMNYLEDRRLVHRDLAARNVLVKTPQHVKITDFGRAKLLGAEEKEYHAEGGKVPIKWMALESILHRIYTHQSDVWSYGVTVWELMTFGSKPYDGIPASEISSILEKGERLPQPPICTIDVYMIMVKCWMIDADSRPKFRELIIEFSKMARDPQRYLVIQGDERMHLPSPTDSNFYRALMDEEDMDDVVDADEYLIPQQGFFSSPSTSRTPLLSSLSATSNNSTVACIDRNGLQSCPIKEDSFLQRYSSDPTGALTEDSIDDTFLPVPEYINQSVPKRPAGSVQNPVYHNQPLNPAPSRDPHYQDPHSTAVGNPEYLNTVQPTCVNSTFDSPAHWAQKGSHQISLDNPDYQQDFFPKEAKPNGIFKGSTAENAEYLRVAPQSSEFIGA

GI50 [1] [µM]	IC50 [2] [µM]	IC50 [3] [µM]	GI50 [4] [µM]	Structure (SMILES)
< 0.1	< 0.0005	< 0.005	< 0.5	CN1CCC(c2ccc(-c3ccc4c(c3)C(=O)N(C(C(=O)Nc3nccs3)c3ncn5c3CCC5)CO4)cc2)CC1 (centres unmarked) [Compound 008, 2-(6,7-Dihydro-5H-pyrrolo[1,2-c]imidazol-1-yl)-2-(6-(4-(1-methylpiperidin-4-yl)phenyl)-4-oxo-2H-benzo[e][1,3]oxazin-3(4H)-yl)-N-(thiazol-2-yl)acetamide]
< 0.1	< 0.0005	< 0.005	< 0.5	CN1CCC(c2ccc(-c3cc(F)c4c(=O)n(C(C(=O)Nc5nccs5)c5ncn6c5CCC6)ccc4c3)cc2)CC1 (centres unmarked) [Compound 001, 2-(6,7-Dihydro-5H-pyrrolo[1,2-c]imidazol-1-yl)-2-(8-fluoro-6-(4-(1-methylpiperidin-4-yl)phenyl)-1-oxoisoquinolin-2(1H)-yl)-N-(thiazol-2-yl)acetamide]
< 0.1	< 0.0005	< 0.005	< 0.5	CN1CCC(c2ccc(-c3ccc4ncn(C(C(=O)Nc5nccs5)c5ncn6c5CCC6)c(=O)c4c3F)cc2)CC1 (centres unmarked) [Compound 006, 2-(6,7-Dihydro-5H-pyrrolo[1,2-c]imidazol-1-yl)-2-(5-fluoro-6-(4-(1-methylpiperidin-4-yl)phenyl)-4-oxoquinazolin-3(4H)-yl)-N-(thiazol-2-yl)acetamide]
< 5	< 0.005	> 0.005	< 5	CN1CCN(c2ccc(-c3ccc4ncn(C(C(=O)Nc5nccs5)c5ncn6c5CCC6)c(=O)c4c3)cc2)CC1 (centres unmarked) [Compound 007, 2-(6,7-Dihydro-5H-pyrrolo[1,2-c]imidazol-1-yl)-2-(6-(4-(4-methylpiperazin-1-yl)phenyl)-4-oxoquinazolin-3(4H)-yl)-N-(thiazol-2-yl)acetamide]

The remaining lines, values behind:

Structure (SMILES)	GI50 [1] [µM]	IC50 [2] [µM]	IC50 [3] [µM]	GI50 [4] [µM]
CN1CCC(c2ccc(-c3cc(F)c4c(=O)n(C(C(=O)Nc5nccs5)c5ncn6c5C[C@@H](F)C6)ccc4c3)cc2)CC1 (stereo partly drawn) [Compound 002, 2-((R)-6-Fluoro-6,7-dihydro-5H-pyrrolo[1,2-c]imidazol-1-yl)-2-(8-fluoro-6-(4-(1-methylpiperidin-4-yl)phenyl)-1-oxoisoquinolin-2(1H)-yl)-N-(thiazol-2-yl)acetamide]	< 0.5	< 0.001	< 0.005	< 0.5
CN1CCC(c2ccc(-c3cc4ccn(C(C(=O)Nc5nccs5)c5ncn6c5C[C@@H](F)C6)c(=O)c4s3)cc2)CC1 (stereo partly drawn) [Compound 004, 2-((R)-6-Fluoro-6,7-dihydro-5H-pyrrolo[1,2-c]imidazol-1-yl)-2-(2-(4-(1-methylpiperidin-4-yl)phenyl)-7-oxothieno[2,3-c]pyridin-6(7H)-yl)-N-(thiazol-2-yl)acetamide]	< 0.5	< 0.0005	< 0.005	< 5
CN1CCC(c2ccc(-c3ccc4ncn(C(C(=O)Nc5nccs5)c5ncn6c5CCC6)c(=O)c4c3)cc2)CC1 (centres unmarked) [Compound 005, 2-(6,7-Dihydro-5H-pyrrolo[1,2-c]imidazol-1-yl)-2-(6-(4-(1-methylpiperidin-4-yl)phenyl)-4-oxoquinazolin-3(4H)-yl)-N-(thiazol-2-yl)acetamide]	< 0.1	< 0.0005	< 0.001	< 0.5
CN1CCC(c2ccc(-c3cc4ccn(C(C(=O)Nc5nccs5)c5ncn6c5CCC6)c(=O)c4s3)cc2)CC1 (centres unmarked) [Compound 003, 2-(6,7-Dihydro-5H-pyrrolo[1,2-c]imidazol-1-yl)-2-(2-(4-(1-methylpiperidin-4-yl)phenyl)-7-oxothieno[2,3-c]pyridin-6(7H)-yl)-N-(thiazol-2-yl)acetamide]	< 0.1	< 0.0005	< 0.005	< 0.5
